Biological target: T1, muscarinic receptor (rat brain)
T1 construct: gene Chrm1; native receptors in particulate (40 000 g pellet) preparation of whole brain without cerebellum; subtype mixture not resolved
Test: [3H]NMS displacement, rat brain membranes, filtration
Assay type: binding
Settings: [3H]NMS 0.3 nM (0.5 nM in data analysis), 30 mM Na+/HEPES pH 7.5, 25 °C, 60 min; competitive
Source text: [3H]NMS displacement, rat brain membranes, filtration on muscarinic receptor (rat brain)

SMILES	IC50 [µM]
OC(CCN1CCCCC1)(c1ccccc1)c1ccccc1 [Pridinol]	0.0536
CCc1ccc(C(=O)C(C)CN2CCCCC2)cc1 (stereo not drawn) [Eperisone]	0.902
Nc1nc(CC(=O)Nc2ccc(CCNC[C@H](O)c3ccccc3)cc2)cs1 [Mirabegron]	6.62
Clc1ccccc1CN1CCc2sccc2C1 [Ticlopidine]	18
C[N+]1(C)[C@@H]2C[C@@H](OC(=O)C(O)(c3cccs3)c3cccs3)C[C@H]1[C@@H]1O[C@@H]12 [Tiotropium]	0.00039
CNCC[C@H](Oc1cccc2ccccc12)c1cccs1 [Duloxetine]	19.3
CCC(NC(C)C)C(O)c1ccc(O)c2[nH]c(=O)ccc12 (stereo not drawn) [Procaterol]	3.9
OCc1cc(C(O)CNCCCCCCOCCCCc2ccccc2)ccc1O (stereo not drawn) [Salmeterol]	6.1
COc1cc2nc(N3CCN(C(=O)C4COc5ccccc5O4)CC3)nc(N)c2cc1OC (stereo not drawn) [Doxazosin]	13.2
CCC(=O)O[C@]1(C(=O)SCF)[C@H](C)C[C@H]2[C@@H]3C[C@H](F)C4=CC(=O)C=C[C@]4(C)[C@@]3(F)[C@@H](O)C[C@@]21C [Fluticasone Propionate]	8
NC1=NCC2c3ccccc3Cc3ccccc3N12 (stereo not drawn) [Epinastine]	26.3
O=C(O[C@H]1CN2CCC1CC2)N1CCc2ccccc2[C@@H]1c1ccccc1 [Solifenacin]	0.00738
CNCCC=C1c2ccccc2CCc2ccccc21 [Nortriptyline]	0.168
CN1CCC2=C(C1)c1ccccc1Cc1ccccc12 [Setiptiline]	1.97
Cc1c(-c2ccccc2)oc2c(C(=O)OCCN3CCCCC3)cccc2c1=O [Flavoxate]	11.5
CC#CCn1c(N2CCC[C@@H](N)C2)nc2c1c(=O)n(Cc1nc(C)c3ccccc3n1)c(=O)n2C [Linagliptin]	2.89
Cn1c(=O)cc(N2CCC[C@@H](N)C2)n(Cc2ccccc2C#N)c1=O [Alogliptin]	81.5
OC(CCN1CCCCC1)(c1ccccc1)C1CC2C=CC1C2 (stereo not drawn) [Biperiden]	0.0105
CN(C)CCC=C1c2ccccc2CCc2ccccc21 [Amitriptyline]	0.0293
CC(C)COCC(CN(Cc1ccccc1)c1ccccc1)N1CCCC1 (stereo not drawn) [Bepridil]	20.8
CN(C)CCOC1=Cc2ccccc2Sc2ccc(Cl)cc21 [Zotepine]	0.554
CC(C)C(=O)Oc1ccc(CO)cc1[C@H](CCN(C(C)C)C(C)C)c1ccccc1 [Fesoterodine]	0.012
CN(CCCCCCN(C)C(=O)Oc1ccc[n+](C)c1)C(=O)Oc1ccc[n+](C)c1 [Distigmine]	1.7

SMILES	IC50 [µM]
CCCOC(C(=O)OC1CCN(C)CC1)(c1ccccc1)c1ccccc1 [Propiverine]	0.35
OCc1cc([C@@H](O)CNCCCCCCOCCOCc2c(Cl)cccc2Cl)ccc1O [Vilanterol]	6.1
CN(C)CCCN1c2ccccc2CCc2ccccc21 [Imipramine]	0.279
O=C(Nc1ccc(C[C@@H]2CC[C@H]([C@H](O)c3ccccc3)N2)cc1)[C@@H]1CCc2nccc(=O)n21 [Vibegron]	5.32
CC(CN(C)C)CN1c2ccccc2CCc2ccccc21 (stereo not drawn) [Trimipramine]	0.099
OC[C@H]1O[C@@H](c2ccc(Cl)c(Cc3ccc(O[C@H]4CCOC4)cc3)c2)[C@H](O)[C@@H](O)[C@@H]1O [Empagliflozin]	22.1
CC(C)N(CCC(C(N)=O)(c1ccccc1)c1ccccn1)C(C)C (stereo not drawn) [Disopyramide]	5.99
CCCC[C@H](C)C[C@H](O)/C=C/[C@H]1[C@H](O)CC(=O)[C@@H]1CCCC/C=C/C(=O)O [Limaprost]	56.1
COc1cc(O)c(C(=O)Nc2nc(C(=O)NCCN(C(C)C)C(C)C)cs2)cc1OC [Acotiamide]	44.2
OC(c1ccccc1)(c1ccccc1)C12CC[N+](CCOCc3ccccc3)(CC1)CC2 [Umeclidinium]	0.00015
COc1ccc(CC(C)NCC(O)c2ccc(O)c(NC=O)c2)cc1 (stereo not drawn) [Formoterol]	14.3
CN(C)CCCN1c2ccccc2Sc2ccc(Cl)cc21 [Chlorpromazine]	0.376
COCCCOc1ccnc(C[S+]([O-])c2nc3ccccc3[nH]2)c1C (stereo not drawn) [Rabeprazole]	18.1
CNCc1cc(-c2ccccc2F)n(S(=O)(=O)c2cccnc2)c1 [Vonoprazan]	1.7
C[C@@H]1C[C@H]2[C@@H]3C[C@H](F)C4=CC(=O)C=C[C@]4(C)[C@@]3(F)[C@@H](O)C[C@]2(C)[C@@]1(OC(=O)c1ccco1)C(=O)SCF [Fluticasone furoate]	18.2
CC(C)(C)NCC(O)c1ccccc1Cl (stereo not drawn) [Tulobuterol]	71.9
CCc1cc2c(cc1CC)CC(NC[C@H](O)c1ccc(O)c3[nH]c(=O)ccc13)C2 [Indacaterol]	39.3
OC(CCCN1CCCCC1)(c1ccccc1)c1ccccc1 [Difenidol]	0.325
C[N+]1(C)CCCC(OC(=O)C(O)(c2ccccc2)c2ccccc2)C1 (stereo not drawn) [Mepenzolate]	0.00306
Cc1cncc(CN2CCC(=C3c4ccc(Cl)cc4CCc4cccnc43)CC2)c1 [Rupatadine]	1.51
CN(C)CCC(c1ccc(Cl)cc1)c1ccccn1 (stereo not drawn) [Chlorpheniramine]	5.1
Clc1ccc(C(OCCN2CCCCC2)c2ccccc2)cc1 (stereo not drawn) [Cloperastine]	0.0003
